Test results published in US20220169680A1 (priority 2018, published 2022).
“Also recorded” adds a separate entry of the source. Like-named read-outs stand apart in the source and are kept apart here.

What was measured:
[1] = test system: LPS-induced acute lung injury in mice; details: mouse, in vivo; cited from earlier work
[2] = test system: LPS-induced acute lung injury in mice; parameters: species or system C57 BL/6 male mice; details: mouse, in vivo
A549 cells [3] = type: cell-based
A549 cells [4] = type: cell-based; remark: listed apart in the source
A549 cells [5] = type: cell-based; remark: listed apart in the source
A549 cells [6] = type: cell-based; remark: listed apart in the source
A549 cells [7] = type: cell-based; remark: listed apart in the source
[8] = test system: 3′ UTR region of RELA gene; type: cell-based
murine organs = test system: murine organs; parameters: species or system C57 BL/6 male mice; details: mouse, in vivo
HeLa cells = type: cell-based
[9] = test system: 3′ UTR region of COLLAGEN3A1 gene; type: cell-based
A549 cells [10] = type: cell-based; remark: listed apart in the source
A549 cells [11] = type: cell-based; remark: listed apart in the source
[12] = test system: poly(I:C)-induced acute lung injury mouse model; parameters: species or system C57 BL/6 male mice; details: in vivo
HEK293T cells = type: cell-based
MRCS cells = type: cell-based
[13] = test system: LPS-induced acute lung injury in mice; parameters: species or system C57 BL/6 male mice; details: mouse, in vivo; remark: listed apart in the source
[14] = test system: 293T cell, HUVEC cell, HCT-116 cell, MKN-45 cell, MRCS cell, U397 cell and ESF-1 cell; type: cell-based
A549 cells [15] = type: cell-based; remark: listed apart in the source
A549 cells [16] = type: cell-based; remark: listed apart in the source

Compound	effect on preventing lung injury (IL-6 in alveolar lavage fluid) [2]	carrying Cy3-labeled small RNA into cells (A549 cells [3])	effect compared with transfection reagent RNAiMax (A549 cells [3])	cell-penetrating peptide function compared with positive control TAT (A549 cells [4])	ability to carry small RNA compared with TAT at the same concentration (A549 cells [7])	carrying FAM-labeled small RNA into cells (A549 cells [7])	ability to carry PGY-dsRNA-6 compared with positive control TAT [8]	carrying PGY-dsRNA-6 into cells and fulfilling its function (luciferase reporter) [8]	cell penetration properties (HeLa cells)	cell entry (A549 cells [4])	cell entry after 5 min incubation (A549 cells [4])	cell entry at lower concentrations (A549 cells [4])	cell entry effect compared with TAT positive control (A549 cells [4])	cell entry effect compared with existing cell-penetrating peptides (Table 4) (A549 cells [4])	ability to carry small RNA into cells compared with the transfection reagent RNAiMax group, qPCR (A549 cells [11])	ability to carry small RNA into cells, qPCR (A549 cells [11])	carrying NS1-GFP plasmid into cells and GFP expression (HEK293T cells)	cell penetration properties (MRCS cells)	entry of miR1246 antagomir into lung tissue of mice [13]	entry effect compared with other fragments in different cell lines [14]	also measured
COc1cc(C2Oc3cc([C@H]4Oc5cc(O)cc(O)c5C(=O)[C@@H]4O)ccc3OC2CO)ccc1O (some centres unmarked) [silybin, reference compound]	had a tendency to prevent lung injury at this dose	–	–	–	–	–	–	–	–	–	–	–	–	–	–	–	–	–	–	–	effect on LPS-induced acute lung injury in mice [1]: can effectively reduce the LPS-induced acute lung injury in mice
DRLFFKCIYRRLK [Jilin-2004(H5N1)-M2-44-56]	–	can carry small RNA into cells	stronger than that of the transfection reagent RNAiMax	stronger than that of the positive control TAT	significantly stronger	can all carry small RNA into cells	stronger than that of the positive control TAT	could all carry PGY-dsRNA-6 into cells and fulfill its function	–	–	–	–	–	–	–	–	–	–	–	–	ability to carry proteins into the cell compared with TAT at the same concentration (A549 cells [5]): significantly stronger; carrying β-galactosidase protein into the cell (A549 cells [5]): could carry β-galactosidase protein into the cell; cell entry of polypeptide carrying GFP protein (A549 cells [6]): observed; effect of carrying GFP protein compared with positive control TAT (A549 cells [6]): stronger than that of the positive control TAT
DRLFFKCIYRRLKYGLKR [Jilin-2004(H5N1)-M2-44-61]	had no effect on preventing lung injury	can carry small RNA into cells	stronger than that of the transfection reagent RNAiMax	stronger than that of the positive control TAT	significantly stronger	can all carry small RNA into cells	stronger than that of the positive control TAT	could all carry PGY-dsRNA-6 into cells and fulfill its function	consistent with the results obtained using A549 cells	entered A549 cells	cell entry could be detected; also recorded: the entry into the cell was observed	could still enter A549 cells	stronger than that of the TAT polypeptide	significantly better cell entry effects than existing cell-penetrating peptides	stronger than the transfection reagent RNAiMax group	all had the ability to carry small RNA into cells	could carry NS1-GFP plasmid into HEK293 cells, and GFP protein was expressed in the nucleus	consistent with the results obtained using A549 cells	could improve the entry of miR1246 antagomir into lung tissue of mice	even better entry effects	ability to deliver small RNA compared with TAT (murine organs): significantly stronger than that of TAT; murine organs or tissues in which small RNA was detected (murine organs): detected in 8 murine organs or tissues, including heart, liver, spleen, lung, kidney, stomach, small intestine and thymus; delivery of small RNAs to murine organs (murine organs; ip): could effectively deliver small RNAs (PGY-sRNA-23 and PGY-sRNA-26) to murine organs; amount of cell entry versus incubation duration (A549 cells [4]): increased as the incubation duration increased; cell entry at 30 min (A549 cells [4]): had a strong entry effect; cell entry effect compared with TAT at the same time points (A549 cells [4]): much stronger than that of the positive control TAT polypeptide; cell entry effect compared with the other three penetrating polypeptides (A549 cells [4]): even better cell entry effect; difference in entry effects between 1 h, 3 h and 6 h (A549 cells [4]): little difference in entry effects; entry effect compared with other C-terminally truncated polypeptides (A549 cells [4]): even better entry effects than other polypeptides; ability to carry HJT-sRNA-m7 compared with positive control TAT [9]: stronger than that of the positive control TAT; carrying HJT-sRNA-m7 into cells and fulfilling its function (luciferase reporter) [9]: could carry HJT-sRNA-m7 into cells and fulfill its function; cell-penetrating peptide effect compared with transfection reagent RNAiMax [9]: close to the transfection reagent RNAiMax; ability to carry FAM-labeled small RNA compared with transfection reagent RNAiMax (A549 cells [7]): stronger than that of the transfection reagent RNAiMax; carrying Cy3-labeled small RNA into cells (super high resolution microscope) (A549 cells [10]): can carry Cy3-labeled small RNA into A549 cells; effect compared with RNAiMax or TAT (super high resolution microscope) (A549 cells [10]): stronger than that of the transfection reagent RNAiMax or of TAT; rank of ability to carry small RNA in the cell experiments (A549 cells [11]): the strongest ability to carry small RNA in the cell experiments; ability to carry small RNA in murine organs compared with TAT [12]: stronger than that of TAT; cell-penetrating peptide effect compared with transfection reagent RNAiMax [8]: close to the transfection reagent RNAiMax
GRKKRRQRRRPPQ [TAT, reference compound]	–	–	–	–	–	–	–	–	–	did not show cell entry	the entry into the cell was observed	–	–	–	–	–	almost no expression of GFP fluorescent protein	–	almost no effect	–	cell entry at 1 h (A549 cells [4]): the effect was obvious; ability to carry small RNA (PGY-sRNA-26) into cells, qPCR (A549 cells [11]): very weak; cell entry of rhodamine-labeled polypeptide (A549 cells [15]): could all enter A549 cells
RLFFKCIYRRLKYGLKRG [Jilin-2004(H5N1)-M2-45-62]	–	–	–	stronger than that of the positive control TAT	significantly stronger	can all carry small RNA into cells	stronger than that of the positive control TAT	could all carry PGY-dsRNA-6 into cells and fulfill its function	consistent with the results obtained using A549 cells	still had a significant cell entry effect; also recorded: entered A549 cells	–	could still enter A549 cells	stronger than that of the TAT polypeptide	significantly better cell entry effects than existing cell-penetrating peptides	stronger than the transfection reagent RNAiMax group	all had the ability to carry small RNA into cells	could carry NS1-GFP plasmid into HEK293 cells, and GFP protein was expressed in the nucleus	consistent with the results obtained using A549 cells	–	even better entry effects	cell entry of FITC-labeled polypeptide (A549 cells [4]): could achieve significant A549 cell entry at all concentrations tested; cell-penetrating peptide effect (A549 cells [4]): a good cell-penetrating peptide effect; entry effect compared with FITC-labeled TAT (positive control) (A549 cells [4]): much stronger than FITC-labeled TAT polypeptide; ability to carry small RNA compared with TAT at the same concentration (A549 cells [16]): significantly stronger; carrying Cy3-labeled small RNA into cells (A549 cells [16]): can carry small RNA into cells; ability to carry small RNA (PGY-sRNA-26) into cells, qPCR (A549 cells [11]): had the ability to carry small RNA into the cells; cell-penetrating peptide function (confocal imaging) (A549 cells [15]): all had cell-penetrating peptide functions
